Reference: patent US20110098296A1, “Thiazole And Oxazole Kinase Inhibitors” (priority 2007, published 2011)
pIC50: −log10 of the molar value. Counter-ions that a name gives are not always drawn.

Columns and labels:
A375P F11s tumor cells = experiment: Method C: Cell Growth Inhibition Assay (CellTiter-Glo), A375P F11s; format: cell-based; settings: Homo sapiens, 72 h, 3 days, 4-parameter fit
Summary of the method: (§1)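 500 cells/well; next-day compound, 1:3 serial dilutions, 0.2% DMSO final; 3 d, 37° C, 5% CO2. Readout: CellTiter-Glo luminescence (total ATP as cell-number surrogate). IC50 from 4-parameter fit of % growth inhibition vs vehicle.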

BT474 tumor cells = experiment: Method C: Cell Growth Inhibition Assay (CellTiter-Glo), BT474; format: cell-based; settings: Homo sapiens, BT-474, 72 h, 3 days, 4-parameter fit
ErbB2 = biological target: T1, ErbB2 (Homo sapiens, UniProt P04626); experiment: ErbB-2 substrate phosphorylation assay (HTRF); format: biochemical; settings: Method (A): Enzyme Mix incubated with compound at 20° C. for 1 hr, reaction started by adding Substrate Mix
T1 construct: made in house; host or cells: baculovirus expression system
T1 sequence (P04626 23-1255): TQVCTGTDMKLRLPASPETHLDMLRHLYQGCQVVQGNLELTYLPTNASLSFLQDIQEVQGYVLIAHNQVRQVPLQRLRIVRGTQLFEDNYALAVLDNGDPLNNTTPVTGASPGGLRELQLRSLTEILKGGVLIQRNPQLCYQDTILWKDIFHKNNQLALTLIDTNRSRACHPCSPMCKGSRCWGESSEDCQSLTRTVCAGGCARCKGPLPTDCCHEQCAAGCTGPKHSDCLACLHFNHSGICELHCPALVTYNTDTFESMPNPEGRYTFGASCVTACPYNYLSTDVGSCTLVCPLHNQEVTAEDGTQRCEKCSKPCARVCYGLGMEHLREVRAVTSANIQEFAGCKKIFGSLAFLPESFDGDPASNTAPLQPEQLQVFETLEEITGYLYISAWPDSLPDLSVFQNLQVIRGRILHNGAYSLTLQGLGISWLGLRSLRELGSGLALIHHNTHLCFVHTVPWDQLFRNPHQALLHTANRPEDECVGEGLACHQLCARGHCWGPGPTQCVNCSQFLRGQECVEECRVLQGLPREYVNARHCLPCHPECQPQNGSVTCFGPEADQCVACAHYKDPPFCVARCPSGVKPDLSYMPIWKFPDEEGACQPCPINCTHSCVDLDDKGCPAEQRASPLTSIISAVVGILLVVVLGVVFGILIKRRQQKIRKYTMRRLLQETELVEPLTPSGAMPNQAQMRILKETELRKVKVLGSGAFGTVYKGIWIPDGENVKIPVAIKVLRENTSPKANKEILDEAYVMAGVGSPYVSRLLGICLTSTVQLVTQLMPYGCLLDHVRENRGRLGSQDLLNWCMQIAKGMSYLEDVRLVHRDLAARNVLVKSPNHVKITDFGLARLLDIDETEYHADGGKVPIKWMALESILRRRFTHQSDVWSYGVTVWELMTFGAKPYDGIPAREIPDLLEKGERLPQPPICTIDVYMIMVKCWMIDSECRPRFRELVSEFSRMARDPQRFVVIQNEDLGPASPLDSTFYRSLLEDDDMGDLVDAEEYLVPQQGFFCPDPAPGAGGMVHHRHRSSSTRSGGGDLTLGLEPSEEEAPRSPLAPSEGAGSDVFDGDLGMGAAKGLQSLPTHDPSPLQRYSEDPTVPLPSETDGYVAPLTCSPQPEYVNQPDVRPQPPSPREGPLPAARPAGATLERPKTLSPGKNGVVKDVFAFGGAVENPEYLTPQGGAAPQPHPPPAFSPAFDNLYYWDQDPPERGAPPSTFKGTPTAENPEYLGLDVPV
Summary of the method: (§2)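 Baculovirus-expressed kinase (0.8 nM EGFR or 10 nM ErbB2 in enzyme mix) with Peptide C 0.8 μM and ATP 20 μM (substrate-mix levels), MOPS pH 7.5, MnCl2; 90 min, 20 °C, HTRF anti-phosphotyrosine. Method A adds 1 h enzyme–compound preincubation; B none. pIC50, final compound 0.00027–47.6 μM.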

SK-MEL-3 tumor cells = experiment: Method C: Cell Growth Inhibition Assay (CellTiter-Glo), SK-MEL-3; format: cell-based; settings: Homo sapiens, SK-MEL3, 72 h, 3 days, 4-parameter fit
Summary of the method: (§3)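 Plating at 500 cells/well is followed the next day by addition of compound as a 1:3 serial dilution series. After 3 days' incubation, CellTiter-Glo luminescence is read and IC50 is calculated versus DMSO wells.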

SK-MEL-28 tumor cells = experiment: Method C: Cell Growth Inhibition Assay (CellTiter-Glo), SK-MEL-28; format: cell-based; settings: Homo sapiens, SK-MEL-28, 72 h, 3 days, 4-parameter fit
Summary of the method: as §1

Colo205 tumor cells = experiment: Method C: Cell Growth Inhibition Assay (CellTiter-Glo), Colo205; format: cell-based; settings: Homo sapiens, COLO 205, 72 h, 3 days, 4-parameter fit
Summary of the method: as §3

EGFR = biological target: T2, EGFR (Homo sapiens, UniProt P00533); experiment: EGFR substrate phosphorylation assay (HTRF); format: biochemical; settings: Method (A): Enzyme Mix incubated with compound at 20° C. for 1 hr, reaction started by adding Substrate Mix
T2 construct: made in house; host or cells: baculovirus expression system
T2 sequence (P00533 25-1210): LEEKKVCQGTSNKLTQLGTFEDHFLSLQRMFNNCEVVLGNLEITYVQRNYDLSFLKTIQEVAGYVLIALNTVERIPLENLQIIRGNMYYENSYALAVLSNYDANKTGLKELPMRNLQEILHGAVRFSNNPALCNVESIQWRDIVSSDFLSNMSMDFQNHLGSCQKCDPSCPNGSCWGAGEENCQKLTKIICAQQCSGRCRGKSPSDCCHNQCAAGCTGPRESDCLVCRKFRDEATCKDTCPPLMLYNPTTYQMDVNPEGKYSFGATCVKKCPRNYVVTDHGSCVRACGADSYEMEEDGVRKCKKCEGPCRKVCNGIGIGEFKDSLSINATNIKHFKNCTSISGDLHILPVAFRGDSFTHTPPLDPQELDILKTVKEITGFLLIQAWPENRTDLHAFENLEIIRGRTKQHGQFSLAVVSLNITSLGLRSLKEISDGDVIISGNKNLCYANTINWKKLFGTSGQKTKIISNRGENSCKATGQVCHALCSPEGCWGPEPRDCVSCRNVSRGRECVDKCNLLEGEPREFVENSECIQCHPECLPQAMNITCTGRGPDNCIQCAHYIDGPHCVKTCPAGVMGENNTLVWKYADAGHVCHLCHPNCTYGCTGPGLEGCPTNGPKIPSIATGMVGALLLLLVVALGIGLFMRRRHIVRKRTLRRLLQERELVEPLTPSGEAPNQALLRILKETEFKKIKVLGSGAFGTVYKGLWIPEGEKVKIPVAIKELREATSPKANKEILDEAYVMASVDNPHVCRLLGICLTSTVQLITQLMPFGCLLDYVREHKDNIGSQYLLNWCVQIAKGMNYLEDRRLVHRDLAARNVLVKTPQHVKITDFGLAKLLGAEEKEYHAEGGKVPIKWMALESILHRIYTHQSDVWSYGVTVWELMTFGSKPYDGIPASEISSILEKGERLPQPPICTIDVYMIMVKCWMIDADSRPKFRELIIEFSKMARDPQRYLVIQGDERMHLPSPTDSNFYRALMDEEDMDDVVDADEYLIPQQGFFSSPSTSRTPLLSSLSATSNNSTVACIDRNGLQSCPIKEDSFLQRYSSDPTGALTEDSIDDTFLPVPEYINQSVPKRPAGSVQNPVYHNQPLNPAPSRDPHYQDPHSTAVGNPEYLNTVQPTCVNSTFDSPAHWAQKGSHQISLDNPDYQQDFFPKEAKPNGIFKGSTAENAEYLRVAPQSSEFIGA
Summary of the method: as §2

HT-29 tumor cells = experiment: Method C: Cell Growth Inhibition Assay (CellTiter-Glo), HT-29; format: cell-based; settings: Homo sapiens, HT-29, 72 h, 3 days, 4-parameter fit
Summary of the method: as §1

HN5 tumor cells = experiment: Method C: Cell Growth Inhibition Assay (CellTiter-Glo), HN5; format: cell-based; settings: Homo sapiens, 72 h, 3 days, 4-parameter fit
Summary of the method: as §1

| Compound | pIC50 (A375P F11s tumor cells) | pIC50 (BT474 tumor cells) | pIC50 (ErbB2) | pIC50 (SK-MEL-3 tumor cells) | pIC50 (SK-MEL-28 tumor cells) | pIC50 (Colo205 tumor cells) | pIC50 (EGFR) | pIC50 (HT-29 tumor cells) | pIC50 (HN5 tumor cells) |
| --- | --- | --- | --- | --- | --- | --- | --- | --- | --- |
| CCc1nc(-c2cccc(NC(=O)c3c(F)cccc3F)c2)c(-c2ccnc(Nc3ccc(OCCN(C)C)c(F)c3)n2)s1 [Example 112, N-[3-(5-{2-[(4-{[2-(Dimethylamino)ethyl]oxy}-3-fluorophenyl)amino]-4-pyrimidinyl}-2-ethyl-1,3-thiazol-4-yl)phenyl]-2,6-difluorobenzamide] | 6.00 to 7.00 | > 7.00 | > 7.00 | < 6.00 | < 6.00 | 6.00 to 7.00 | > 7.00 | 6.00 to 7.00 | 6.00 to 7.00 |
| CN1CCc2ccc(Nc3nccc(-c4sc(N)nc4-c4cccc(NC(=O)c5c(F)cccc5F)c4)n3)cc2C1 [Example 10, trifluoroacetate] | 6.00 to 7.00 | > 7.00 | > 7.00 | 6.00 to 7.00 | 6.00 to 7.00 | 6.00 to 7.00 | > 7.00 | 6.00 to 7.00 | > 7.00 |
| O=C(Nc1cccc(-c2nc(NC3CC3)sc2-c2ccnc(Nc3ccc(OCCN4CCCC4)c(F)c3)n2)c1)c1c(F)cccc1F [Example 33, N-[3-(2-(Cyclopropylamino)-5-{2-[(3-fluoro-4-{[2-(1-pyrrolidinyl)ethyl]oxy}phenyl)amino]-4-pyrimidinyl}-1,3-thiazol-4-yl)phenyl]-2,6-difluorobenzamide] | 6.00 to 7.00 | > 7.00 | > 7.00 | 6.00 to 7.00 | 6.00 to 7.00 | 6.00 to 7.00 | > 7.00 | 6.00 to 7.00 | 6.00 to 7.00 |
| CN(C)c1nc(-c2cccc(NC(=O)c3c(F)cccc3F)c2)c(-c2ccnc(Nc3cccc(CN4CCCC4)c3)n2)s1 [Example 39, N-{3-[2-(Dimethylamino)-5-(2-{[3-(1-pyrrolidinylmethyl)phenyl]amino}-4-pyrimidinyl)-1,3-thiazol-4-yl]phenyl}-2,6-difluorobenzamide] | 6.00 to 7.00 | > 7.00 | > 7.00 | 6.00 to 7.00 | < 6.00 | 6.00 to 7.00 | > 7.00 | 6.00 to 7.00 | 6.00 to 7.00 |
| CN(C)CCOc1ccc(Nc2nccc(-c3sc(N4CCCCC4)nc3-c3cccc(NC(=O)c4c(F)cccc4F)c3)n2)cc1Cl [Example 72, N-{3-[5-{2-[(3-Chloro-4-{[2-(dimethylamino)ethyl]oxy}phenyl)amino]-4-pyrimidinyl}-2-(1-piperidinyl)-1,3-thiazol-4-yl]phenyl}-2,6-difluorobenzamide] | < 6.00 | < 6.00 | > 7.00 | < 6.00 | < 6.00 | < 6.00 | > 7.00 | 6.00 to 7.00 | 6.00 to 7.00 |
| CN1CCc2ccc(Nc3nccc(-c4sc(N(C)C)nc4-c4cccc(NC(=O)c5c(F)cccc5F)c4)n3)cc2C1 [Example 38] | 6.00 to 7.00 | 6.00 to 7.00 | > 7.00 | 6.00 to 7.00 | 6.00 to 7.00 | 6.00 to 7.00 | > 7.00 | 6.00 to 7.00 | > 7.00 |
| CN(C)CCOc1ccc(Nc2nccc(-c3sc(N(C)C)nc3-c3cccc(NC(=O)c4c(F)cccc4F)c3)n2)cc1 [Example 36, N-[3-(2-(Dimethylamino)-5-{2-[(4-{[2-(dimethylamino)ethyl]oxy}phenyl)amino]-4-pyrimidinyl}-1,3-thiazol-4-yl)phenyl]-2,6-difluorobenzamide] | < 6.00 | > 7.00 | > 7.00 | < 6.00 | < 6.00 | 6.00 to 7.00 | > 7.00 | 6.00 to 7.00 | > 7.00 |
| Nc1nc(-c2cccc(NC(=O)c3c(F)cccc3F)c2)c(-c2ccnc(Nc3cccc(CN4CCCC4)c3)n2)s1 [Example 13, N-{3-[2-Amino-5-(2-{[3-(1-pyrrolidinylmethyl)phenyl]amino}-4-pyrimidinyl)-1,3-thiazol-4-yl]phenyl}-2,6-difluorobenzamide] | 6.00 to 7.00 | > 7.00 | > 7.00 | 6.00 to 7.00 | < 6.00 | 6.00 to 7.00 | > 7.00 | 6.00 to 7.00 | > 7.00 |
| CC(=O)Nc1nc(-c2cccc(NC(=O)c3c(F)cccc3F)c2)c(-c2ccnc(Nc3cccc(CN4CCCC4)c3)n2)s1 [Example 34, N-{3-[2-(Acetylamino)-5-(2-{[3-(1-pyrrolidinylmethyl)phenyl]amino}-4-pyrimidinyl)-1,3-thiazol-4-yl]phenyl}-2,6-difluorobenzamide] | 6.00 to 7.00 | > 7.00 | > 7.00 | 6.00 to 7.00 | 6.00 to 7.00 | 6.00 to 7.00 | > 7.00 | 6.00 to 7.00 | > 7.00 |
| CNc1nc(-c2cccc(NC(=O)c3c(F)cccc3F)c2)c(-c2ccnc(Nc3cccc(CN4CCCC4)c3)n2)s1 [Example 23, 2,6-Difluoro-N-{3-[2-(methylamino)-5-(2-{[3-(1-pyrrolidinylmethyl)phenyl]amino}-4-pyrimidinyl)-1,3-thiazol-4-yl]phenyl}benzamide] | 6.00 to 7.00 | > 7.00 | > 7.00 | 6.00 to 7.00 | < 6.00 | 6.00 to 7.00 | > 7.00 | 6.00 to 7.00 | > 7.00 |
| COc1ccc(Nc2nccc(-c3scnc3-c3cccc(NC(=O)c4c(F)cccc4F)c3)n2)cc1N1CCN(C)CC1 [Example 93, 2,6-Difluoro-N-{3-[5-(2-{[4-(methyloxy)-3-(4-methyl-1-piperazinyl)phenyl]amino}-4-pyrimidinyl)-1,3-thiazol-4-yl]phenyl}benzamide] | 6.00 to 7.00 | > 7.00 | > 7.00 | 6.00 to 7.00 | 6.00 to 7.00 | 6.00 to 7.00 | > 7.00 | 6.00 to 7.00 | > 7.00 |
| CN(C)CCOc1ccc(Nc2nccc(-c3sc(N)nc3-c3cc(NC(=O)c4c(F)cccc4F)ccc3F)n2)cc1Cl [Example 68, N-[3-(2-Amino-5-{2-[(3-chloro-4-{[2-(dimethylamino)ethyl]oxy}phenyl)amino]-4-pyrimidinyl}-1,3-thiazol-4-yl)-4-fluorophenyl]-2,6-difluorobenzamide] | 6.00 to 7.00 | > 7.00 | > 7.00 | 6.00 to 7.00 | 6.00 to 7.00 | 6.00 to 7.00 | > 7.00 | 6.00 to 7.00 | > 7.00 |
| O=C(Nc1cccc(-c2ncsc2-c2ccnc(Nc3cccc(CN4CCCC4)c3)n2)c1)c1c(F)cccc1F [Example 94, 2,6-Difluoro-N-{3-[5-(2-{[3-(1-pyrrolidinylmethyl)phenyl]amino}-4-pyrimidinyl)-1,3-thiazol-4-yl]phenyl}benzamide] | < 6.00 | > 7.00 | > 7.00 | 6.00 to 7.00 | < 6.00 | 6.00 to 7.00 | > 7.00 | 6.00 to 7.00 | > 7.00 |
